Data published in US20250171418A1, “PARP1 INHIBITORS AND USES THEREOF” (XinThera, Inc., priority 2022, published 2025).

Tests used:
DLD-1 BRCA2(−/−) = assay: Cell growth inhibition assay (CellTiter-Glo cell viability); type: cell-based; details: DLD-1 BRCA2(−/−) cells, 7 days, CellTiter Glo 2.0
Method: (§1) Cell proliferation was measured through the cell viability assay using DLD-1 BRCA2(−/−) and parental isogenic pair and MDA-MB-436 (mutated BRCA1) cell lines. The CellTiter-Glo (CTG) based cell viability assay is designed to determine the number of viable cells in the culture because of compound effect, by quantifying ATP, which indicates the presence of metabolically active cells.
(§2) DLD-1 BRCA2(−/−) and parental isogenic pair were cultured in RPMI 1640 supplemented with 10% fetal bovine serum (FBS), and MDA-MB-436 cells were cultured in DMEM supplemented with 10% FBS. Both were cultured at 37° C. with […]. Invention compounds were distributed to the 384 well plate (Corning, 3764) using Echo acoustic liquid handler to form a 1:3 serially diluted final concentration with top dose of 10 or 30 μM.

[1] = tested on: MDA-MB-436 (mutated BRCA1) cell lines; assay: as above; type: cell-based; details: MDA-MB-436 cells, 7 days, CellTiter Glo 2.0
Method: as §1, §2

PARP1 = PARP1 (Homo sapiens, UniProt P09874); assay: biochemical
Method: The assay was performed utilizing the following method:
Compounds were dissolved in DMSO an Echo550 liquid handler was utilized to make serial dilations in the desired concentration range in Optiplate-384F plates. 100% DMSO was used for the high (with protein) and low (without protein) control samples. 20 nL of compound or DMSO alone was added to individual assay plate wells.
PARP1 and PARP2 protein were expressed, purified, and diluted in assay buffer containing 50 mM Tris pH 8.0, 0.001% Triton X-100, 10 mM MgCl2, 150 mM NaCl to a final concentration of 20 nM. The PARPi-FL was then added at a final concentration of 3 nM.
The assay plate was centrifuged at 1000 rpm for 1 min and incubated for 4 h at room temperature.
The fluorescent polarization was read using an Envision plate reader using the following settings: • Excitation filter—FITC FP 480-Ex Slot 3 • Emission filter—FITC FP P-pol 535-Em Slot 4 • 2nd Emission filter—FITC FP S-pol 535-Em Slot 3 • Mirror module—FITC FP Dual Enh-Slot 1
XLFit (equation 201) is used to calculate a reported IC50 for each compound.

BCRP = target: T1, BCRP (Homo sapiens, UniProt Q9UNQ0); assay: In vitro human transporter efflux, MDCKII cells expressing BCRP; type: in vitro ADME
T1 construct: expressed in transfected cells; host or cells: MDCKII (Madin-Darby canine kidney) cells
T1 sequence (Q9UNQ0 1-655): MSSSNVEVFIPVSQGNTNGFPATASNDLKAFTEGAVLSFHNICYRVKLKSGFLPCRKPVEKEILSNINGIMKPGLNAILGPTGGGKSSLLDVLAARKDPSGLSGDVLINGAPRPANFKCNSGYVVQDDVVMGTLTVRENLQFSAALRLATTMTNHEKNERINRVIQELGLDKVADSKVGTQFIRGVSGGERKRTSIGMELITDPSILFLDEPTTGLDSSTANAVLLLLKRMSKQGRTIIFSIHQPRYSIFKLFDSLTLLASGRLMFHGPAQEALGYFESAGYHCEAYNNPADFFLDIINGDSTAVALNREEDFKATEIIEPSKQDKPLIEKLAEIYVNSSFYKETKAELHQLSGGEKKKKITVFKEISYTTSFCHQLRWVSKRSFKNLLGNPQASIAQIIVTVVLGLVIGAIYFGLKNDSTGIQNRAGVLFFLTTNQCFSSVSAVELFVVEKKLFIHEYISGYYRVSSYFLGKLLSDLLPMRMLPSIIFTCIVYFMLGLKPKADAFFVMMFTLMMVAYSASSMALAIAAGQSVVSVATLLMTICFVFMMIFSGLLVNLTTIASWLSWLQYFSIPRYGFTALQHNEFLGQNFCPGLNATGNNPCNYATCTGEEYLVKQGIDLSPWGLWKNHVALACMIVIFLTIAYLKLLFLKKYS
Method: (§3) Madin-Darby canine kidney (MDCKII) cells expressing either MDR1 or BCRP were seeded onto Corning HTS Transwell® 96-well polycarbonate permeable (0.4 μm pore) supports at a density of 545,000 cells/cm2. Cells were incubated for 4-8 days prior to assay, and monolayer integrity was assessed by measuring transepithelial electrical resistance (TEER). […] The final organic solvent concentration was 0.5% (v/v). Bidirectional (apical-to-basolateral and basolateral-to-apical) flux of the test and reference compounds was determined over a 2-hour incubation at 37° C. and […] with a relative humidity of 95%. At the end of the incubation, samples from the apical and basolateral side were taken and then precipitated with acetonitrile containing internal standard. After centrifugation at 3200×g, supernatants were diluted 1:1 (v/v) with water and subjected to analysis via HPLC-MS/MS.
(§4) The apparent permeability (Papp, units of x 10-6 cm/s) was calculated using the following equation: […]
(§5) Where dQ/dt was the rate of drug transport (pmol/s), A was the surface area of the membrane (0.143 cm^2), and DO was the initial donor concentration (nM or pmol/cm3).
(§6) Efflux ratio=Papp(B→A)/Papp(A→B)
(§7) Where Papp(B→A) is the apparent permeability in the basolateral-to-apical direction, and Papp(A→B) is the apparent permeability in the apical-to-basolateral direction.

MDR1 = target: T2, MDR1 (Homo sapiens, UniProt P08183); assay: In vitro human transporter efflux, MDCKII cells expressing MDR1; type: in vitro ADME
T2 construct: expressed in transfected cells; host or cells: MDCKII (Madin-Darby canine kidney) cells
Method: as §3, §4, §5, §6, §7

Chain of PARP1 (P09874 whole entry): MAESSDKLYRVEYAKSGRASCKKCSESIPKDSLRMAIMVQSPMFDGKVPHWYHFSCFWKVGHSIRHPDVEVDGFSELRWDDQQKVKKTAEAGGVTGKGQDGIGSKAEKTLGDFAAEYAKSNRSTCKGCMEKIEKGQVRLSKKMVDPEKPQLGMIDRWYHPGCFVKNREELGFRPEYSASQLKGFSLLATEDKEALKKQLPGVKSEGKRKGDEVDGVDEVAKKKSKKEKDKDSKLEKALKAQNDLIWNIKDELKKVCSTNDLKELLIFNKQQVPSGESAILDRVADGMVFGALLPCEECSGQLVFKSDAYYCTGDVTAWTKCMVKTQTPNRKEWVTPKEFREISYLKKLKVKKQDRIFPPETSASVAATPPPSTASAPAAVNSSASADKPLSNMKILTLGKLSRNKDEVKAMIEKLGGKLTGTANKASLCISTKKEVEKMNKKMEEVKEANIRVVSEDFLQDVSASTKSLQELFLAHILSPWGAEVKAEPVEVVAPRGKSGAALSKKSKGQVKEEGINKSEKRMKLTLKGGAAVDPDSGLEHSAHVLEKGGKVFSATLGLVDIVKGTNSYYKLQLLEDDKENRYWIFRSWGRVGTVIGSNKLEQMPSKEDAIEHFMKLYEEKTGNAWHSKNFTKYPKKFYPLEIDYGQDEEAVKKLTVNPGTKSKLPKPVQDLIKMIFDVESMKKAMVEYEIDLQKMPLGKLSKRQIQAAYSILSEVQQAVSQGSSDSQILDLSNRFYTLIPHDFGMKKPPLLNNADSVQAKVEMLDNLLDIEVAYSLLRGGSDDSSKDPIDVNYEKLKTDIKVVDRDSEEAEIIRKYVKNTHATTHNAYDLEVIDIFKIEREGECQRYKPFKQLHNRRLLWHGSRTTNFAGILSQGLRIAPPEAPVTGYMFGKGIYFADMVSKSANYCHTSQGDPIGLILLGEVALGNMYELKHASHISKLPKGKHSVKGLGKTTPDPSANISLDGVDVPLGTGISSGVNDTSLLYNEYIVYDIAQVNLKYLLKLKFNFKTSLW
T2 sequence (P08183 whole entry): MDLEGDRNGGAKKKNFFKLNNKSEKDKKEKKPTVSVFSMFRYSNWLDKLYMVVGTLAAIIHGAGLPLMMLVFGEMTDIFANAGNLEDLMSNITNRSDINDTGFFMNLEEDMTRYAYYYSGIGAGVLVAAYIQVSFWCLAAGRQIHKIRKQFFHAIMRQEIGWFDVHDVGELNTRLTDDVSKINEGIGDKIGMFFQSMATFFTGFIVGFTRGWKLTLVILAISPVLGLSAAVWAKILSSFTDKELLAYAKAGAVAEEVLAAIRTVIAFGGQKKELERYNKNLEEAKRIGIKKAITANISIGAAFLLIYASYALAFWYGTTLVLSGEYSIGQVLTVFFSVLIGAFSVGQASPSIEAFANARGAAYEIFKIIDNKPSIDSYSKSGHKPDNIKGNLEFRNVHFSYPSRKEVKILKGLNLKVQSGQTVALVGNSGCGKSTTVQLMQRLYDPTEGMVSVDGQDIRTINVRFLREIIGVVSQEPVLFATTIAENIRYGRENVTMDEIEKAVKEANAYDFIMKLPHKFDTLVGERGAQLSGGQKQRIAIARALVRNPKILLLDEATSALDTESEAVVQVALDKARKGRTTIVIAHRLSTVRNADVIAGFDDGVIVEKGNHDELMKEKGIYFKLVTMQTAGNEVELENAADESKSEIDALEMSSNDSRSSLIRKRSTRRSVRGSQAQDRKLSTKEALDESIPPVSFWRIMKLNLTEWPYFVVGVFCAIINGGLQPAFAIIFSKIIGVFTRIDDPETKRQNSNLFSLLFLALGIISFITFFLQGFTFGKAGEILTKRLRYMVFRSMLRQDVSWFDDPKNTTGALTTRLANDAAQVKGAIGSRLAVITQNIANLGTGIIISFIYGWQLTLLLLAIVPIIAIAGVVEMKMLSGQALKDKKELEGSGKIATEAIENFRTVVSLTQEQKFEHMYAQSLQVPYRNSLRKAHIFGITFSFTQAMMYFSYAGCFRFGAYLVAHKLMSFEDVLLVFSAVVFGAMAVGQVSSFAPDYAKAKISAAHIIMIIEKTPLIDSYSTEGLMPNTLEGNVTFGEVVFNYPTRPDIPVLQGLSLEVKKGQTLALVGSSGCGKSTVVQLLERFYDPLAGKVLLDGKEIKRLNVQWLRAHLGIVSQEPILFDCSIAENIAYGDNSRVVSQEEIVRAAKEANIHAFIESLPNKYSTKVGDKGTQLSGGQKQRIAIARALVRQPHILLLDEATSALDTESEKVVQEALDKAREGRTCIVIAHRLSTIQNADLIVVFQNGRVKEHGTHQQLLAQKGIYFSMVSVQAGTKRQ

Row | Compound | EC50 (DLD-1 BRCA2(−/−); Homo sapiens, DLD-1, 168 h) | EC50 ([1]; Homo sapiens, 168 h) | IC50 (PARP1) | also measured
1 | CNC(=O)c1ccc(N2CCN(Cc3ccc4nc(C)c(=O)[nH]c4c3F)[C@H]3C[C@H]32)c(F)n1 (relative stereo) [Example 2, rel-6-fluoro-5-[(1R,6S)-5-[(5-fluoro-2-methyl-3-oxo-4H-quinoxalin-6-yl)methyl]-2,5-diazabicyclo[4.1.0]heptan-2-yl]-N-methylpyridine-2-carboxamide] | 3.5 nM | 7 nM |  | 
2 | Cc1nc2ccc(CN3CCN(c4ccc(C(=O)NC5CC5)nc4)[C@H]4C[C@H]43)c(F)c2[nH]c1=O (single isomer, unassigned) [Example 6] | 84 nM | 58 nM | 14 nM | 
3 | Cc1nc2ccc(CN3CCN(c4ccc(C(=O)NC5CC5)nc4F)[C@H]4C[C@H]43)c(F)c2[nH]c1=O (single isomer, unassigned) [Example 9] | 19 nM | 7.2 nM |  | 
4 | CCc1nc2ccc(C(C)N3CCN(c4ccc(C(=O)NC)nc4)CC3)c(F)c2[nH]c1=O (single isomer, unassigned) [Example 15] | 28 nM | 15 nM |  | 
5 | CCc1nc2ccc(C(C)N3CCN(c4ccc(C(=O)NC)nc4)CC3)c(F)c2[nH]c1=O (single isomer, unassigned) [Example 16] |  |  |  | EC50 (DLD-1 BRCA2(−/−)): 30 nM; EC50 [1]: 15 nM
6 | CCc1nc2ccc([C@H](C)N3CCN(c4ccc(C(=O)NC)nc4F)CC3)c(F)c2[nH]c1=O (single isomer, unassigned) [Example 17] | 7.7 nM | 6.8 nM | 24 nM | 
7 | CCc1nc2ccc([C@@H](C)N3CCN(c4ccc(C(=O)NC)nc4F)CC3)c(F)c2[nH]c1=O (single isomer, unassigned) [Example 18] | 8.7 nM | 4.4 nM | 15 nM | 
8 | Cc1nc2ccc(CN3CCN(c4ccc(C(=O)N[C@H]5CC5(F)F)nc4F)CC3)c(F)c2[nH]c1=O (single isomer, unassigned) [Example 20] | 5.7 nM | 3.1 nM |  | 
9 | Cc1nc2ccc(CN3CCN(c4ccc(C(=O)N[C@@H]5CC5(F)F)nc4F)CC3)c(F)c2[nH]c1=O (single isomer, unassigned) [Example 21] | 3.1 nM | 2 nM |  | Papp A→B at 2 h, 10 μM (BCRP; pH 7.4, read-out: BCRP Papp AB): 21.4 ×10⁻⁶ cm/s; Papp B→A at 2 h, 10 μM (BCRP; pH 7.4, read-out: BCRP Papp BA): 19.4 ×10⁻⁶ cm/s; Papp A→B at 2 h, 10 μM (MDR1; MDCK-MDR1, pH 7.4, read-out: MDCK-MDR1 Papp AB): 16.6 ×10⁻⁶ cm/s; Papp B→A at 2 h, 10 μM (MDR1; MDCK-MDR1, pH 7.4, read-out: MDCK-MDR1 Papp BA): 16.4 ×10⁻⁶ cm/s
10 | CNC(=O)c1ccc(N2CCN([C@@H](C)c3ccc4nc(C)c(=O)[nH]c4c3F)CC2)c(F)n1 (single isomer, unassigned) [Example 22] | 25 nM | 14 nM |  | 
11 | CNC(=O)c1ccc(N2CCN([C@H](C)c3ccc4nc(C)c(=O)[nH]c4c3F)CC2)c(F)n1 (single isomer, unassigned) [Example 23] | 18 nM | 18 nM |  | 
12 | Cc1nc2ccc([C@H](C)N3CCN(c4ccc(C(=O)NC5CC5)nc4F)CC3)c(F)c2[nH]c1=O (single isomer, unassigned) [Example 24] | 20 nM | 7.9 nM | 24 nM | 
13 | Cc1nc2ccc([C@@H](C)N3CCN(c4ccc(C(=O)NC5CC5)nc4F)CC3)c(F)c2[nH]c1=O (single isomer, unassigned) [Example 25] | 35 nM | 12 nM | 24 nM | 
14 | Cc1nc2ccc([C@H](C)N3CCN(c4ccc(C(=O)NC5CC5)nc4)CC3)c(F)c2[nH]c1=O (single isomer, unassigned) [Example 28] | 970 nM | 21 nM | 70 nM | 
15 | Cc1nc2ccc([C@@H](C)N3CCN(c4ccc(C(=O)NC5CC5)nc4)CC3)c(F)c2[nH]c1=O (single isomer, unassigned) [Example 29] | 45 nM | 84 nM | 90 nM | 
16 | CNC(=O)c1ccc(N2CCN(Cc3ccc4nc(C)c(=O)[nH]c4c3F)C[C@H]2C)c(F)n1 [Example 3] | 17 nM | 35 nM |  | 
17 | Cc1nc2ccc(CN3CCN(c4ccc(C(=O)NC56CC(C5)C6)nc4F)CC3)c(F)c2[nH]c1=O [Example 4] | 5.2 nM | 3.7 nM | 18 nM | 
18 | CNC(=O)c1ccc(C2CCN(Cc3ccc4nc(C)c(=O)[nH]c4c3F)CC2)c(F)n1 [Example 5, 6-fluoro-5-{1-[(5-fluoro-2-methyl-3-oxo-4H-quinoxalin-6-yl)methyl]piperidin-4-yl}-N-methylpyridine-2-carboxamide] | 23 nM | 11 nM | 16 nM | 
19 | CNC(=O)c1ccc(C2=CCN(Cc3ccc4nc(C)c(=O)[nH]c4c3F)CC2)c(F)n1 [Example 7, 2-fluoro-1′-[(5-fluoro-2-methyl-3-oxo-4H-quinoxalin-6-yl)methyl]-N-methyl-3′,6′-dihydro-2′H-[3,4′-bipyridine]-6-carboxamide] | 15 nM | 6.7 nM | 15 nM | 
20 | Cc1nc2ccc(CN3CCN(c4ccc(C(=O)NC5CC5)nc4)CC3)c(F)c2[nH]c1=O [Example 8] | 39 nM | 13 nM | 15 nM | 
21 | COCCNC(=O)c1ccc(N2CCN(Cc3ccc4nc(C)c(=O)[nH]c4c3F)CC2)c(F)n1 [Example 10] | 14 nM | 8.1 nM |  | 
22 | Cc1nc2ccc(CN3CCN(c4ccc(C(=O)N[C@H]5C[C@H](F)C5)nc4F)CC3)c(F)c2[nH]c1=O [Example 11] | 6.8 nM | 3.8 nM | 5.2 nM | 
23 | CCc1nc2ccc(CN3CCN(c4ccc(C(=O)NCCOC)nc4F)CC3)c(F)c2[nH]c1=O [Example 12] | 7.1 nM | 5.3 nM |  | 
24 | Cc1nc2ccc(CN3CCN(c4ccc(C(=O)NC5CC(F)(F)C5)nc4F)CC3)c(F)c2[nH]c1=O [Example 13] | 4.4 nM | 5 nM |  | 
25 | CCc1nc2ccc(CN3CCN(c4ccc(C(=O)NC5CC5)nc4F)CC3)c(F)c2[nH]c1=O [Example 14] | 2.8 nM | 2.1 nM | 5.3 nM | 
26 | Cc1nc2ccc(CN3CC=C(c4ccc(C(=O)NC5CC5)nc4F)CC3)c(F)c2[nH]c1=O [Example 26] | 21 nM | 23 nM | 37 nM | 
27 | Cc1nc2ccc(CN3CCC(c4ccc(C(=O)NC5CC5)nc4F)CC3)c(F)c2[nH]c1=O [Example 27] | 27 nM | 11 nM |  | 
